Assay results as given in PubChem BioAssay AID328 (DTP/NCI, 2004).
Where “and” joins values, the source holds several entries; their conditions need not be identical. Identical values can stand only once. Toxic doses and inconclusive results are not listed. Rule for the calls: active = survival T/C of 150% or more; inactive = T/C below 125% in these data.

Test system: BDF1 mice, P388 leukemia ip, median survival T/C
Assay: NCI In Vivo Anticancer Drug Screen. Data for tumor model P388 Leukemia (intraperitoneal) in B6D2F1 (BDF1) mice
Details: endpoint: median survival time, higher = longer survival
How it was run: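 Vehicle-dosed animals serve as the reference; survival of compound-dosed, tumour-implanted mice is divided by it.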

[1] = dose: 25.0 mg/kg/injection, schedule: Q04DX003 (ip), vehicle: saline with Tween-80
[2] = dose: 50.0 mg/kg/injection, schedule: Q04DX003 (ip), vehicle: saline with Tween-80
[3] = dose: 100.0 mg/kg/injection, schedule: Q04DX003 (ip), vehicle: saline with Tween-80
[4] = dose: 200.0 mg/kg/injection, schedule: Q04DX003 (ip), vehicle: saline with Tween-80
[5] = dose: 400.0 mg/kg/injection, schedule: Q04DX003 (ip), vehicle: saline with Tween-80
[6] = dose: 50.0 mg/kg/injection, schedule: Q01DX009 (ip), vehicle: saline with Tween-80
[7] = dose: 100.0 mg/kg/injection, schedule: Q01DX009 (ip), vehicle: saline with Tween-80
[8] = dose: 100.0 mg/kg/injection, schedule: Q04DX003 (ip), vehicle: Klucel (hydroxypropylcellulose) (HPC)
[9] = dose: 200.0 mg/kg/injection, schedule: Q04DX003 (ip), vehicle: Klucel (hydroxypropylcellulose) (HPC)
[10] = dose: 400.0 mg/kg/injection, schedule: Q04DX003 (ip), vehicle: Klucel (hydroxypropylcellulose) (HPC)
[11] = dose: 200.0 mg/kg/injection, schedule: Q01DX009 (ip), vehicle: saline with Tween-80
[12] = dose: 400.0 mg/kg/injection, schedule: Q01DX009 (ip), vehicle: saline with Tween-80
[13] = dose: 50.0 mg/kg/injection, schedule: Q01DX009 (ip), vehicle: Klucel (hydroxypropylcellulose) (HPC)

Measured: T/C

[CH3][Hg][Cl]
inactive: dose: 0.25 mg/kg/injection, schedule: Q01DX009 (ip), vehicle: saline 109 % of control | dose: 0.5 mg/kg/injection, schedule: Q01DX009 (ip), vehicle: saline 100 % of control | dose: 1.0 mg/kg/injection, schedule: Q01DX009 (ip), vehicle: saline 100 % of control

O=[N+]([O-])c1ccc(C(O)Nc2nccs2)o1 (stereo unspecified)
inactive: [1] 95 % of control | [2] 100 % of control and 104 % of control | [3] 100 % of control

O=c1cc(Cl)c(=O)[nH][nH]1
inactive: dose: 50.0 mg/kg/injection, schedule: Q01DX001 (ip), vehicle: saline 101 % of control | dose: 100.0 mg/kg/injection, schedule: Q01DX001 (ip), vehicle: saline 118 % of control | [3] 100 % of control | dose: 200.0 mg/kg/injection, schedule: Q01DX001 (ip), vehicle: saline 98 % of control | [4] 91 % of control | [5] 91 % of control

O=C(O)C1OC(n2cc([N+](=O)[O-])c(=O)[nH]c2=O)C(O)C1O (stereo unspecified)
inactive: dose: 25.0 mg/kg/injection, schedule: Q01DX009 (ip), vehicle: saline with Tween-80 95 % of control | [6] 96 % of control | [7] 93 % of control

Clc1ncn[nH]1
inactive: dose: 100.0 mg/kg/injection, schedule: Q01DX001 (ip), vehicle: saline sonified 120 % of control | dose: 200.0 mg/kg/injection, schedule: Q01DX001 (ip), vehicle: saline sonified 112 % of control | dose: 400.0 mg/kg/injection, schedule: Q01DX001 (ip), vehicle: saline sonified 120 % of control

O=C(Nc1ccccc1)Oc1ccc(Cl)cc1
inactive: [8] 104 % of control | [9] 95 % of control | [10] 109 % of control

COc1ccc(/C(=N/N)C(C)(C)C)cc1
inactive: [6] 88 % of control

CCN(CC)CCOc1cc(C)ccc1C
inactive: dose: 25.0 mg/kg/injection, schedule: Q01DX009 (ip), vehicle: saline 103 % of control | dose: 25.0 mg/kg/injection, schedule: Q04DX003 (ip), vehicle: saline 109 % of control | dose: 50.0 mg/kg/injection, schedule: Q01DX009 (ip), vehicle: saline 92 % of control | dose: 50.0 mg/kg/injection, schedule: Q04DX003 (ip), vehicle: saline 100 % of control | dose: 100.0 mg/kg/injection, schedule: Q01DX009 (ip), vehicle: saline 89 % of control | dose: 100.0 mg/kg/injection, schedule: Q04DX003 (ip), vehicle: saline 90 % of control

CCOC(=O)N1CCN(CCCOc2ccc(Cl)cc2Cc2ccccc2)CC1
inactive: [6] 96 % of control | [7] 96 % of control | [11] 105 % of control

Cc1ccc(C)c(-n2c(-c3ccc(Br)cc3)csc2=NC(=O)c2ccccc2F)c1
inactive: [7] 110 % of control | [11] 100 % of control | [12] 115 % of control

CC(=O)OCCCC/C(=C/c1cc2ccccc2c2ccccc12)[N+](=O)[O-]
inactive: [13] 100 % of control | dose: 100.0 mg/kg/injection, schedule: Q01DX009 (ip), vehicle: Klucel (hydroxypropylcellulose) (HPC) 100 % of control

O=S(=O)(OCCF)c1cc(Cl)c(Cl)cc1Cl
inactive: dose: 50.0 mg/kg/injection, schedule: Q01DX005 (ip), vehicle: Klucel (hydroxypropylcellulose) (HPC) 113 % of control

CC1CC=CCC1COC(=O)C(=O)OCC1CC=CCC1C (stereo unspecified)
inactive: [3] 105 % of control | [4] 105 % of control | [5] 110 % of control

[N-]=[N+]=[N-]
inactive: dose: 2.5 mg/kg/injection, schedule: Q01DX009 (ip), vehicle: saline 90 % of control | dose: 5.0 mg/kg/injection, schedule: Q01DX009 (ip), vehicle: saline 90 % of control | dose: 5.0 mg/kg/injection, schedule: Q04DX003 (ip), vehicle: saline 112 % of control | dose: 10.0 mg/kg/injection, schedule: Q04DX003 (ip), vehicle: saline 95 % of control

C=CCCCCCCCCC(=O)Cl
inactive: [3] 108 % of control | [4] 104 % of control | [5] 100 % of control

Cn1c(Cl)nc2c(Cl)nc(Cl)nc21
inactive: dose: 1.0 mg/kg/injection, schedule: Q01DX009 (ip), vehicle: Klucel (hydroxypropylcellulose) (HPC) 105 % of control | dose: 2.0 mg/kg/injection, schedule: Q01DX009 (ip), vehicle: Klucel (hydroxypropylcellulose) (HPC) 100 % of control | dose: 4.0 mg/kg/injection, schedule: Q01DX009 (ip), vehicle: Klucel (hydroxypropylcellulose) (HPC) 110 % of control | dose: 8.0 mg/kg/injection, schedule: Q01DX009 (ip), vehicle: Klucel (hydroxypropylcellulose) (HPC) 105 % of control | dose: 16.0 mg/kg/injection, schedule: Q01DX009 (ip), vehicle: Klucel (hydroxypropylcellulose) (HPC) 100 % of control

ClCc1ccc(CCl)cc1
inactive: dose: 7.03 mg/kg/injection, schedule: Q01DX009 (ip), vehicle: Klucel (hydroxypropylcellulose) (HPC) 110 % of control

Cc1cc(C)c(-c2cc(O)c(C)cc2O)c(C)c1
inactive: dose: 0.39 mg/kg/injection, schedule: Q04DX003 (ip), vehicle: other 103 % of control | dose: 0.78 mg/kg/injection, schedule: Q04DX003 (ip), vehicle: other 108 % of control | dose: 1.56 mg/kg/injection, schedule: Q04DX003 (ip), vehicle: other 104 % of control | dose: 3.12 mg/kg/injection, schedule: Q04DX003 (ip), vehicle: other 90 % of control and 108 % of control | dose: 6.25 mg/kg/injection, schedule: Q04DX003 (ip), vehicle: other 88 % of control and 100 % of control | dose: 12.5 mg/kg/injection, schedule: Q01DX009 (ip), vehicle: other 97 % of control | dose: 12.5 mg/kg/injection, schedule: Q04DX003 (ip), vehicle: other 108 % of control and 109 % of control | dose: 25.0 mg/kg/injection, schedule: Q01DX009 (ip), vehicle: other 118 % of control | dose: 25.0 mg/kg/injection, schedule: Q04DX003 (ip), vehicle: other 92 % of control | [1] 100 % of control | dose: 65.0 mg/kg/injection, schedule: Q04DX003 (ip), vehicle: Klucel (hydroxypropylcellulose) (HPC) 105 % of control | dose: 100.0 mg/kg/injection, schedule: Q01DX009 (ip), vehicle: other 102 % of control | [8] 114 % of control | dose: 150.0 mg/kg/injection, schedule: Q04DX003 (ip), vehicle: Klucel (hydroxypropylcellulose) (HPC) 109 % of control | [4] 93 % of control

CNC(=O)c1ccccc1C(O)(c1ccccc1)c1ccccc1
inactive: [8] 113 % of control | [9] 109 % of control | [10] 100 % of control

NOCc1ccccc1CON
inactive: dose: 37.5 mg/kg/injection, schedule: Q04DX003 (ip), vehicle: saline 108 % of control | dose: 75.0 mg/kg/injection, schedule: Q04DX003 (ip), vehicle: saline 95 % of control | dose: 150.0 mg/kg/injection, schedule: Q04DX003 (ip), vehicle: saline 100 % of control

COC(C(OC)N1CCOCC1)N1CCOCC1 (stereo unspecified)
inactive: [2] 104 % of control | [7] 91 % of control | [3] 95 % of control | [11] 95 % of control | [4] 100 % of control | [12] 95 % of control | [5] 100 % of control

Cc1ccc([N+](=O)[O-])cc1N=C=O
inactive: dose: 12.5 mg/kg/injection, schedule: Q01DX009 (ip), vehicle: Klucel (hydroxypropylcellulose) (HPC) 96 % of control | dose: 25.0 mg/kg/injection, schedule: Q01DX009 (ip), vehicle: Klucel (hydroxypropylcellulose) (HPC) 100 % of control | [13] 96 % of control | [8] 91 % of control | [10] 91 % of control
